The record followed here is US6331548A, “1-cycloalkyl-1,8-naphthyridin-4-one derivative as type IV phosphodiesterase inhibitor” (Suntory Limited, priority 1998, dated 2001).

For data set [1], the target named is type IV phosphodiesterase. The data set is described as follows: Type IV phosphodiesterase inhibiting activity. Conditions: U937 type IV phosphodiesterase fraction, 0.28 μM cAMP, pH 7.5, 30° C., 30 minutes; read-out: PDEIV-IC50. The format is biochemical, human. A digest of the protocol:
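PDE4 fraction from U937 cell lysate, separated on DEAE Sepharose, incubated with compound, 0.4 μCi 3H-cAMP (0.28 μM cAMP) and 5'-nucleotidase in Tris-HCl pH 7.5 with 1 mM MgCl2 for 30 min at 30 °C. Product radioactivity counted after QAE-Sephadex removal of substrate.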

Data set [2] relates to TNF-α production by LPS stimulated macrophages. The data set is described as follows: TNF-α production inhibitory activity by LPS stimulated macrophages. Conditions: Macrophage, BALB/c mouse peritoneal macrophages, cultured for 8 hours, ELISA. It counts as cell-based. How it is done: The following assay was used to evaluate the ability of the compound of the present invention to suppress TNF-α production by LPS stimulated macrophages according to Immunopharmacol. 29, 121-127 (1995).
1) 6 to 10 week old female BALB/c mice were used, 2 ml portions of thioglycolate were intraperitoneally administered, and the abdominal cavities were washed by 10 ml of PBS after 4 days, whereby 1 to 2×10^7 peritoneal cells were obtained per mouse. These were suspended in a hemocyte solution (0.75% ammonium chloride, 17 mM tris-hydrochlorate buffer, pH7.2), centrifuged, then resuspended in an RPMI1640 medium including 10% fetal calf serum and seeded in a 96-well cell culture plate at a density of 1×10^5 cells/50 μl/well. Since these cells adhered strongly to the tissue culture plate and were positive in nonspecific esterase staining, they were used for the test as mouse peritoneal macrophages. Mouse peritoneal macrophages were precultured overnight at 37° C. in […] for the experiment.
2) E. Coli (serum type 055:B5) derived LPS was dissolved in PBS in a concentration of 1 mg/ml, then sterilized by filtration. The test compound was dissolved in DMSO to make a 1000-fold concentration solution of the final concentration of use. 10 μl of the above LPS stock solution (final concentration 10 μg/ml) and 1 μl of the tested substance stock solution were added and mixed in 0.5 ml of RPMI1640 medium containing 10% fetal calf serum. This was added to the above cells at 50 μl/well and cultured for 8 hours. The cultured supernatant was recovered from each well and the TNF-α concentration was measured by the ELISA method (Cytoscreen® Immunoassay Kit Mouse TNF-α, BioSourse International).
The comparative example was the compound described in WO-A-97-04775, Example 1, mentioned above.
Background: In an ELISA, binding on a coated surface is turned into a signal by an enzyme label.

Data set [3] has as its system mice. Nature of the data set: Toxicity: death on intraperitoneal administration to mice for 5 weeks. It counts as in vivo. The note with it: 10 mg/kg per day intraperitoneally for 5 weeks. The text has this: Further, the compounds of the present invention are low in toxicity, and these compounds are expected to be high in safety.

`COC(=O)N1CC(n2cc(C(=O)Nc3c(Cl)cncc3Cl)c(=O)c3cccnc32)C1` [Example 34, N-(3,5-dichloropyridin-4-yl)-1-(1-methoxycarbonylazetidin-3-yl)-1,4-dihydro[1,8]naphthylidin-4-one-3-carboxamide]: the values for the IC50 in data set [1] and in data set [2] were 24 nM and 80 nM, respectively. For the same compound, the death result in data set [3] was “no death”.
Regarding `O=C(Nc1c(Cl)cncc1Cl)c1cn(C2CCN(C(=O)OCc3ccccc3)CC2)c2ncccc2c1=O` [Example 25, N-(3,5-dichloropyridin-4-yl)-1-(1-benzyloxycarbonylpiperidin-4-yl)-1,4-dihydro[1,8]naphthylidin-4-one-3-carboxamide], the results for the IC50 in data set [1] and in data set [2] were 0.9 nM and 0.4 nM, respectively. Also, the death entry in data set [3] is listed as “no death”.
For `O=C1CCC(n2cc(C(=O)Nc3c(Cl)cncc3Cl)c(=O)c3cccnc32)CC1` [Example 120, N-(3,5-dichloropyridin-4-yl)-1-(4-oxocyclohexyl)-1,4-dihydro[1,8]naphthylidin-4-one-3-carboxamide], in that order: 2.7 nM, 0.7 nM and “no death”.
For `COC(=O)N1CCN(n2cc(C(=O)Nc3c(Cl)cncc3Cl)c(=O)c3cccnc32)CC1` [Example 56, N-(3,5-dichloropyridin-4-yl)-1-(4-methoxycarbonylpiperazin-1-yl)-1,4-dihydro[1,8]naphthylidin-4-one-3-carboxamide], in that order: 1.6 nM, 15 nM and “no death”.
For `O=C(Nc1c(Cl)cncc1Cl)c1cn([C@H]2CC[C@H](O)CC2)c2ncccc2c1=O` [Example 117, N-(3,5-dichloropyridin-4-yl)-1-(trans-4-hydroxycyclohexyl)-1,4-dihydro[1,8]naphthylidin-4-one-3-carboxamide], the IC50 in data set [1] came out at 3.7 nM; in data set [2], 2 nM. For the same compound, the death result in data set [3] is given as “no death”.
In the case of `COC(=O)N1CC[C@H](n2cc(C(=O)Nc3c(Cl)cncc3Cl)c(=O)c3cccnc32)C1` [Example 11, (S)-N-(3,5-dichloropyridin-4-yl)-1-(1-methoxycarbonylpyrrolidin-3-yl)-1,4-dihydro[1,8]naphthyridin-4-one-3-carboxamide], the IC50 in data set [1] came to 1.7 nM; in data set [2] it was 4 nM. Besides, the death entry in data set [3] was “no death”.
In the case of `O=C(Nc1ccncc1)c1cn(N2CCOCC2)c2ncccc2c1=O` [Example 106, N-(4-pyridyl)-1-(1-morpholino)-1,4-dihydro[1,8]naphthylidin-4-one-3-carboxamide], the IC50 turned out to be 140 nM in data set [1] and 90 nM in data set [2]. In addition, the death result in data set [3] was “no death”.
For `COC(=O)N1CCC(n2cc(C(=O)Nc3c(Cl)cncc3Cl)c(=O)c3cccnc32)CC1` [Example 26, N-(3,5-dichloropyridin-4-yl)-1-(1-methoxycarbonylpiperidin-4-yl)-1,4-dihydro[1,8]naphthylidin-4-one-3-carboxamide], in that order: 0.9 nM, 0.2 nM and “no death”.
For `O=C(Nc1ccncc1)c1cn(C2CC2)c2ncccc2c1=O` [Example 139, N-(4-pyridyl)-1-cyclopropyl-1,4-dihydro[1,8]naphthylidin-4-one-3-carboxamide], in that order: 240 nM, 370 nM and “no death”.

For orientation: IC50 means the concentration that gives 50% inhibition.
